# Measured values from PubChem BioAssay AID1259407 (Chemical Carcinogenesis Research Information System (CCRIS), 2018).
# The source made the active and inactive calls. No rule for the calls is given here.
# System: CCRIS mutagenicity, Ames/micronucleus/aberration tests
# Assay: CCRIS mutagenicity studies
# [1] = Test System: AMES SALMONELLA TYPHIMURIUM, Strain/Indicator: TA98, Metabolic Activation: NONE, Method: PREINCUBATION
# [2] = Test System: AMES SALMONELLA TYPHIMURIUM, Strain/Indicator: TA100, Metabolic Activation: NONE, Method: PREINCUBATION
# [3] = Test System: AMES SALMONELLA TYPHIMURIUM, Strain/Indicator: TA1535, Metabolic Activation: NONE, Method: PREINCUBATION
compound,measurement,setting,value
O=c1c(O)c(O)c1=O,mutagenic call,"Test System: AMES SALMONELLA TYPHIMURIUM, Strain/Indicator: TA98, Metabolic Activation: HAMSTER, LIVER, S-9, AROCLOR 1254, Method: STANDARD PLATE",inactive; negative
same,mutagenic call,"Test System: AMES SALMONELLA TYPHIMURIUM, Strain/Indicator: TA98, Metabolic Activation: NONE, Method: STANDARD PLATE",inactive; negative
same,mutagenic call,"Test System: AMES SALMONELLA TYPHIMURIUM, Strain/Indicator: TA98, Metabolic Activation: RAT, LIVER, S-9, AROCLOR 1254, Method: STANDARD PLATE",inactive; negative
same,mutagenic call,"Test System: AMES SALMONELLA TYPHIMURIUM, Strain/Indicator: TA100, Metabolic Activation: HAMSTER, LIVER, S-9, AROCLOR 1254, Method: STANDARD PLATE",inactive; negative
same,mutagenic call,"Test System: AMES SALMONELLA TYPHIMURIUM, Strain/Indicator: TA100, Metabolic Activation: NONE, Method: STANDARD PLATE",inactive; negative
same,mutagenic call,"Test System: AMES SALMONELLA TYPHIMURIUM, Strain/Indicator: TA100, Metabolic Activation: RAT, LIVER, S-9, AROCLOR 1254, Method: STANDARD PLATE",inactive; negative
same,mutagenic call,"Test System: AMES SALMONELLA TYPHIMURIUM, Strain/Indicator: TA1535, Metabolic Activation: HAMSTER, LIVER, S-9, AROCLOR 1254, Method: STANDARD PLATE",inactive; negative
same,mutagenic call,"Test System: AMES SALMONELLA TYPHIMURIUM, Strain/Indicator: TA1535, Metabolic Activation: NONE, Method: STANDARD PLATE",inactive; negative
same,mutagenic call,"Test System: AMES SALMONELLA TYPHIMURIUM, Strain/Indicator: TA1535, Metabolic Activation: RAT, LIVER, S-9, AROCLOR 1254, Method: STANDARD PLATE",inactive; negative
same,mutagenic call,"Test System: AMES SALMONELLA TYPHIMURIUM, Strain/Indicator: TA1537, Metabolic Activation: HAMSTER, LIVER, S-9, AROCLOR 1254, Method: STANDARD PLATE",inactive; negative
same,mutagenic call,"Test System: AMES SALMONELLA TYPHIMURIUM, Strain/Indicator: TA1537, Metabolic Activation: NONE, Method: STANDARD PLATE",inactive; negative
same,mutagenic call,"Test System: AMES SALMONELLA TYPHIMURIUM, Strain/Indicator: TA1537, Metabolic Activation: RAT, LIVER, S-9, AROCLOR 1254, Method: STANDARD PLATE",inactive; negative
same,mutagenic call,"Test System: AMES SALMONELLA TYPHIMURIUM, Strain/Indicator: TA1538, Metabolic Activation: HAMSTER, LIVER, S-9, AROCLOR 1254, Method: STANDARD PLATE",inactive; negative
same,mutagenic call,"Test System: AMES SALMONELLA TYPHIMURIUM, Strain/Indicator: TA1538, Metabolic Activation: NONE, Method: STANDARD PLATE",inactive; negative
same,mutagenic call,"Test System: AMES SALMONELLA TYPHIMURIUM, Strain/Indicator: TA1538, Metabolic Activation: RAT, LIVER, S-9, AROCLOR 1254, Method: STANDARD PLATE",inactive; negative
same,mutagenic call,"Test System: MOUSE LYMPHOMA, Strain/Indicator: L5178Y (TK+/TK-), Metabolic Activation: NONE, Method: SUSPENSION/PLATE",inactive; negative. reevaluation of results: negative
same,mutagenic call,"Test System: MOUSE LYMPHOMA, Strain/Indicator: L5178Y (TK+/TK-), Metabolic Activation: RAT, LIVER, S-9, AROCLOR 1254, Method: SUSPENSION/PLATE",inactive; negative. reevaluation of results: negative
CC/C=C/C#N,mutagenic call,"Test System: AMES SALMONELLA TYPHIMURIUM, Strain/Indicator: TA97, Metabolic Activation: HAMSTER, LIVER, S-9, AROCLOR 1254 (10%), Method: PREINCUBATION",inactive; negative
same,mutagenic call,"Test System: AMES SALMONELLA TYPHIMURIUM, Strain/Indicator: TA97, Metabolic Activation: HAMSTER, LIVER, S-9, AROCLOR 1254 (30%), Method: PREINCUBATION",inactive; negative
same,mutagenic call,"Test System: AMES SALMONELLA TYPHIMURIUM, Strain/Indicator: TA97, Metabolic Activation: NONE, Method: PREINCUBATION",inactive; negative
same,mutagenic call,"Test System: AMES SALMONELLA TYPHIMURIUM, Strain/Indicator: TA97, Metabolic Activation: RAT, LIVER, S-9, AROCLOR 1254 (10%), Method: PREINCUBATION",inactive; negative
same,mutagenic call,"Test System: AMES SALMONELLA TYPHIMURIUM, Strain/Indicator: TA97, Metabolic Activation: RAT, LIVER, S-9, AROCLOR 1254 (30%), Method: PREINCUBATION",inactive; negative
same,mutagenic call,"Test System: AMES SALMONELLA TYPHIMURIUM, Strain/Indicator: TA98, Metabolic Activation: HAMSTER, LIVER, S-9, AROCLOR 1254 (10%), Method: PREINCUBATION",inactive; negative
same,mutagenic call,"Test System: AMES SALMONELLA TYPHIMURIUM, Strain/Indicator: TA98, Metabolic Activation: HAMSTER, LIVER, S-9, AROCLOR 1254 (30%), Method: PREINCUBATION",inactive; negative
same,mutagenic call,[1],inactive; negative
same,mutagenic call,"Test System: AMES SALMONELLA TYPHIMURIUM, Strain/Indicator: TA98, Metabolic Activation: RAT, LIVER, S-9, AROCLOR 1254 (10%), Method: PREINCUBATION",inactive; negative
same,mutagenic call,"Test System: AMES SALMONELLA TYPHIMURIUM, Strain/Indicator: TA98, Metabolic Activation: RAT, LIVER, S-9, AROCLOR 1254 (30%), Method: PREINCUBATION",inactive; negative
same,mutagenic call,"Test System: AMES SALMONELLA TYPHIMURIUM, Strain/Indicator: TA100, Metabolic Activation: HAMSTER, LIVER, S-9, AROCLOR 1254 (10%), Method: PREINCUBATION",inactive; negative
same,mutagenic call,"Test System: AMES SALMONELLA TYPHIMURIUM, Strain/Indicator: TA100, Metabolic Activation: HAMSTER, LIVER, S-9, AROCLOR 1254 (30%), Method: PREINCUBATION",inactive; negative
same,mutagenic call,[2],inactive; negative
same,mutagenic call,"Test System: AMES SALMONELLA TYPHIMURIUM, Strain/Indicator: TA100, Metabolic Activation: RAT, LIVER, S-9, AROCLOR 1254 (10%), Method: PREINCUBATION",inactive; negative
same,mutagenic call,"Test System: AMES SALMONELLA TYPHIMURIUM, Strain/Indicator: TA100, Metabolic Activation: RAT, LIVER, S-9, AROCLOR 1254 (30%), Method: PREINCUBATION",inactive; negative
same,mutagenic call,"Test System: AMES SALMONELLA TYPHIMURIUM, Strain/Indicator: TA1535, Metabolic Activation: HAMSTER, LIVER, S-9, AROCLOR 1254 (10 OR 30%), Method: PREINCUBATION",inactive; negative
same,mutagenic call,[3],inactive; negative
same,mutagenic call,"Test System: AMES SALMONELLA TYPHIMURIUM, Strain/Indicator: TA1535, Metabolic Activation: RAT, LIVER, S-9, AROCLOR 1254 (10%), Method: PREINCUBATION",inactive; negative
same,mutagenic call,"Test System: AMES SALMONELLA TYPHIMURIUM, Strain/Indicator: TA1535, Metabolic Activation: RAT, LIVER, S-9, AROCLOR 1254 (30%), Method: PREINCUBATION",inactive; negative
same,mutagenic call,"Test System: AMES SALMONELLA TYPHIMURIUM, Strain/Indicator: TA1537, Metabolic Activation: HAMSTER, LIVER, S-9, AROCLOR 1254 (10 OR 30%), Method: PREINCUBATION",inactive; negative
Nc1cccc(N)n1,mutagenic call,[1],inactive; negative
same,mutagenic call,"Test System: AMES SALMONELLA TYPHIMURIUM, Strain/Indicator: TA98, Metabolic Activation: RAT, LIVER, S-9, PCB, Method: PREINCUBATION",active; positive
same,mutagenic call,"Test System: AMES SALMONELLA TYPHIMURIUM, Strain/Indicator: TA98, Metabolic Activation: RAT, LIVER, S-9, PHENOBARBITAL AND BETA-NAPHTHOFLAVONE, Method: PREINCUBATION",inactive; negative
same,mutagenic call,[2],inactive; negative
same,mutagenic call,"Test System: AMES SALMONELLA TYPHIMURIUM, Strain/Indicator: TA100, Metabolic Activation: RAT, LIVER, S-9, PCB, Method: PREINCUBATION",inactive; negative
same,mutagenic call,"Test System: AMES SALMONELLA TYPHIMURIUM, Strain/Indicator: TA100, Metabolic Activation: RAT, LIVER, S-9, PHENOBARBITAL AND BETA-NAPHTHOFLAVONE, Method: PREINCUBATION",inactive; negative
same,mutagenic call,[3],inactive; negative
same,mutagenic call,"Test System: AMES SALMONELLA TYPHIMURIUM, Strain/Indicator: TA1535, Metabolic Activation: RAT, LIVER, S-9, PHENOBARBITAL AND BETA-NAPHTHOFLAVONE, Method: PREINCUBATION",inactive; negative
same,mutagenic call,"Test System: AMES SALMONELLA TYPHIMURIUM, Strain/Indicator: TA1537, Metabolic Activation: RAT, LIVER, S-9, PHENOBARBITAL AND BETA-NAPHTHOFLAVONE, Method: PREINCUBATION",active; positive
same,mutagenic call,"Test System: E. COLI, Strain/Indicator: WP2UVRA, Metabolic Activation: NONE, Method: PREINCUBATION",inactive; negative
same,mutagenic call,"Test System: E. COLI, Strain/Indicator: WP2UVRA, Metabolic Activation: RAT, LIVER, S-9, PHENOBARBITAL AND BETA-NAPHTHOFLAVONE, Method: PREINCUBATION",inactive; negative
c1ccc2c(c1)ccc1ccc3sccc3c12,mutagenic call,"Test System: Ames Salmonella typhimurium, Strain/Indicator: TA100, Metabolic Activation: None, Method: Plate incorporation",active; positive
same,mutagenic call,"Test System: Ames Salmonella typhimurium, Strain/Indicator: TA104, Metabolic Activation: None, Method: Plate incorporation",inactive; negative
